Measured values: patent EP0682022B1, “Condensation products of melamine, benzotriazoles and aldehydes” (Ciba Specialty Chemicals Holding Inc., priority 1994, dated 1995)
Converted amounts (≈) assume the structure as drawn.

Experiment: Solubility in water
Type: physicochemical
Conditions: at room temperature, read-out: Löslichkeit in Wasser

## O=C(O)C(Nc1nc(NC(C(=O)O)n2cncn2)nc(NC(C(=O)O)n2cncn2)n1)n1cncn1 (stereo not shown) [Beispiel 25]
  solubility: 50 mg/mL (≈ 99.7 mM)
